Laboratory results: US20090252816A1, “Inhalable Gaseous Medicament Based On Xenon And Nitrous Oxide” (AIR LIQUIDE SANTE (INRTERNATIONAL), priority 2003, published 2009)

What was measured:
[1] = test system: dopamine release in the nucleus accumbens septi; test: dopamine release in slices of nucleus accumbens septi by differential pulse voltammetry; assay type: cell-based, rat
Method: In addition, the preparation of the slices of nucleus accumbens septi was performed as follows. The animals were decapitated under mild anesthesia with halothane and the brain was then rapidly removed. Frontal sections of 300 μm, corresponding to an anteriority of +0.70/1.20 mm (according to Bregma, Paxinos and Watson, 1998) were taken using a chopper (Mickie Laboratory Engineering Company, Gomshall, Surrey, UK). The brain slices were placed for recovery in a buffered saline solution with a temperature of 3-4° C. for at least 1 hour before use for neurochemical study.
The measurement of the dopamine release was performed by the technique of normal differential pulse voltammetry using a single-fiber carbon electrode 10 μm in diameter and 250 μm long (CFN10-250; World Precision Instruments, Aston, Stevenage, Hertfordshire, UK). The electrochemical treatment enabling this type of electrode to be made sensitive to dopamine consisted in applying a continuous current of −1.5 V into a phosphate-buffered saline solution for 20 seconds, followed by a triangular current of +2.6 V also for 20 seconds on the working electrode (Brazell et al., 1987). Under these conditions, the dopaminergic signal appears at a potential of +100 mV.
The rat brain slices were then placed in an organ tank and infused with artificial cerebrospinal fluid having the composition: NaCl 118 mM, MgCl2 1.18 mM, KCl 4.9 mM, NaH2PO4 1.25 mM, CaCl2 1.25 mM, NaHCO3 3.6 mM, d-glucose 10 mM, HEPES 30 mM, pH 7.4, the temperature of which was maintained at 34±1° C. using a temperature controller (Delta 4 Culture Dish Controller, Bioptechs, Butler, Pa., USA). The electrode was placed under microscopic control (microscope EFN 600, Nikon, Paris, France), 100 μm from the anterior commissure, using an optical micrometer incorporated into the microscope, and then fully descended into the nucleus accumbens septi, at an angle of 45°, and connected to the Biopulse polarograph set in normal differential pulse voltammetry mode with the following parameters: scanning potential −150+350 mV; scanning time 0.4 s, scanning amplitude 4 mV, for a scanning speed of 10 mV.s^−1, 40 ms measuring pulse; 70 ms measuring prepulse; 30 mV measuring amplitude.
The dopaminergic hyperstimulation was induced by adding d-amphetamine to the infusion liquid. Medical air, nitrous oxide or xenon was dissolved, to saturation, before use in the infusion liquid, the pH of which was readjusted to 7.4.

[2] = test system: sensitization to d-amphetamine; test: d-amphetamine sensitization protocol, locomotor activity in actimetry cages; assay type: in vivo, rat; conditions: for blocking of the sensitization process (locomotor activity in d-amphetamine test on D7): remainder oxygen, 3 h after each d-amphetamine injection D1-D3; for concentration necessary to block the sensitization process: d-amphetamine sensitization
Method: Male Sprague-Dawley rats weighing about 250 g were used in the experiments.
(§1) 15 groups of animals (of 7 or 8 animals each) were used, including 10 groups during the actual sensitization studies and 5 other groups during the histological studies of the neurons of the posterior and retrosplenial cingulate cortices.
The animals were injected intraperitoneally (i.p.) for 3 consecutive days from D1 to D3 with d-amphetamine (Amph; 1 mg/ml/kg) or, depending on the case, with a saline solution (1 ml/kg) for the control animals.
After each injection, the rats were immediately placed for 3 hours in a closed chamber, 100 liters in volume, flushed in dynamic regime with a constant flow rate of 5 l.min^−1, either with air (group 1: saline; group 2: Amph), or with 50% by volume of nitrous oxide (group 3: saline; group 4: Amph) or 75% (group 5: saline; group 6: Amph), or with 50% by volume of xenon (group 7: saline; group 8: Amph) or 75% (group 9: saline, group 10: Amph); the rest of the mixtures (remainder to 100%) being oxygen.
The locomotor activity of the animals of groups 1 to 10 was evaluated on D6, after an i.p. injection of a saline solution (1 ml/kg), and on D7 after an i.p. injection of d-amphetamine (1 mg/ml/kg). The locomotor activity of the animals in response to these injections was recorded using actimetry cages with photoelectric cells (Imétronic, Pessac. France).
The results obtained, given in the attached FIGS. 1 and 2, are expressed as the mean±standard error. The comparison of the groups was performed by means of nonparametric tests: Kruskall-Wallis analysis of variance, followed in the event of a significant result by the Mann-Whitney U test.

[3] = test system: posterior and retrosplenial cingulate cortices; test: histological study of neurons of the posterior and retrosplenial cingulate cortices after repeated gas exposure; assay type: in vivo, rat; conditions: for histological findings in posterior and retrosplenial cingulate cortices (neurotoxic effect): repeated exposure for 3 consecutive days
Method: as §1
In order to identify the possible neurotoxic potential of repeated exposure (3 hours per day […]) to nitrous oxide or to xenon on the posterior and retrosplenial cingulate cortices, 5 additional groups of animals were pretreated, according to a protocol identical to that defined above, by administration of a saline solution, and then exposed either to air (group 11) or to 50% or 75% nitrous oxide (groups 12 and 13) or to 50% or 75% xenon (groups 14 and 15).
To do this, after treatment, the animals were sacrificed on D8 by decapitation under general anesthesia with halothane, and the cranium was then immediately placed in a paraformaldehyde solution for one week. The brain was removed, coated with paraffin and sectioned into frontal slices of 4 μm mounted on gelatinized slides and stained with a hemalun-eosin-saffron solution. The posterior and retrosplenial cingulate cortices were analyzed using an optical microscope (×400).

weaning from alcohol = conditions: Lichtigfeld and Gillman 1989; cited from earlier work
[4] = test system: glutamatergic receptors of AMPA type; conditions: Yakamura and Harris, 2000; cited from earlier work
[5] = test system: N-methyl-D-aspartate glutamatergic receptors; conditions: in vitro; Franks et al. 1998, Jevtovic-Todorovic et al. 1998; cited from earlier work
[6] = toxicity threshold of xenon stated for man; conditions: in man
[7] = gas at 50 vol % or 75 vol % (summary statement)

SMILES | dopamine signal relative to the measured basal signal ([1]; d-amphetamine at 10^-5 M in infusion liquid) | locomotor activity in d-amphetamine test on D7, animals pretreated with d-amphetamine versus saline ([2]; d-amphetamine 1 mg/ml/kg i.p. D1-D3, air) | histological findings in posterior and retrosplenial cingulate cortices (neurotoxic effect) ([3]; gas at 75 vol %) | increase in dopamine release induced with d-amphetamine [1, 7] | increase in dopamine release induced with d-amphetamine ([1]; gas at 75% by volume in the infusion liquid, d-amphetamine 10^-5 M) | effect on weaning from alcohol (weaning from alcohol) | effect on glutamatergic receptors of AMPA type [4] | antagonist affinity for NMDA receptors [5] | locomotor activity in response to the saline test on D6 (long-term sedative effect) ([2]; gas at 50 vol % or 75 vol %, rats) | blocking of the sensitization process (locomotor activity in d-amphetamine test on D7) ([2]; gas at 50 vol %, rats) | blocking of the sensitization process (locomotor activity in d-amphetamine test on D7) ([2]; gas at 75 vol %, rats) | concentration necessary to block the sensitization process ([2]; rats) [vol %] | gas effect on acute d-amphetamine test at D7 in rats pretreated with saline solution ([2]; saline-pretreated rats, nitrous oxide exposure D1-D3) | histological findings in posterior and retrosplenial cingulate cortices (neurotoxic effect) ([3]; gas at 50 vol %) | toxicity threshold ([3]; in rats) | increase in dopamine release induced with d-amphetamine ([1]; gas at 50% by volume in the infusion liquid, d-amphetamine 10^-5 M) | toxicity threshold [6] | response to d-amphetamine on D7 in animals pretreated with saline solution ([2]; gas at 75 vol %, versus air or xenon at 50 vol %)
C[C@H](N)Cc1ccccc1.C[C@H](N)Cc1ccccc1.O=S(=O)(O)O [d-amphetamine, d-amphetamine sulfate] | significant increase | significantly higher | – | – | – | – | – | – | – | – | – | – | – | – | – | – | – | –
[N-]=[N+]=O [nitrous oxide] | – | – | No similar effect | block the increase | significantly reduced | slightly better than the placebo effect | no effect | low affinity | no significant difference | partial blocking | significant blocking | 75 | no “gas” effect | – | – | – | – | –
[Xe] [xenon] | – | – | generalized cytoplasmic clarification | block the increase | – | – | no effect | low affinity | – | blocking of the sensitization | blocking of the sensitization | 50 | – | No similar effect | about 75% | significantly reduced | about 60% | significant increase
